The record followed here is patent US20070167526A1, “Topical mecamylamine formulations for ocular administration and uses thereof” (priority 2005, published 2007).

This data set is described as follows: Toxicokinetics in the 14-day dog study (Example 13). In kind it is in vivo. The conditions noted are these: for Cmax: both sexes, beagle, dog, in vivo, topical or ocular. The method, then:
An ophthalmic saline solution formulation containing 3% mecamylamine hydrochloride (HCl) was evaluated for toxicological effects and drug pharmacokinetics in healthy beagle dogs. The drug solution or a matching vehicle control was administered 2, 4 and […] for 14 or 15 consecutive days to both eyes of Beagle dogs.
Animals were dosed 2, 4 or 6 times a day for 14 consecutive days for males or 15 consecutive days for females. The dose (50 microliters) was administered to the globe of the eye on each dosing occasion. Mortality and clinical observations were evaluated twice daily. Ocular observations were evaluated according to the Draize scoring system twice daily (Draize et al., (1944) J. Pharm. Exp. Ther. 82: 377-390, incorporated by reference herein). All eyes from all animals had ophthalmology examinations using an indirect ophthalmoscope and slit lamp and were evaluated according to McDonald and Shadduck (McDonald & Shadduck (1977) Advances in Modern Toxicology 4: 162 (New York, Wiley), hereby incorporated by reference herein) prior to treatment initiation and 1-2 hours following the final dosing of Groups 1 and 4 on Days 7 and 14. Approximate pupil size was determined for each animal prior to study initiation, at least 30 minutes following the final daily dose on Days 1 and 8 and prior to terminal sacrifice on Days 15/16. Electroretinograms (ERG) were obtained from all animals prior to treatment initiation and on Day 14. Blood samples for evaluation of hematology, coagulation and clinical chemistry parameters were collected prior to treatment initiation and prior to terminal sacrifice on Days 15/16. Selected tissues were harvested at necropsy, selected organs weighed, and selected tissues from all animals were evaluated microscopically.

The structures appear in SMILES notation. Like-named read-outs stand apart in the source and are kept apart here.

The Cmax is the highest concentration seen after dosing. Consider `CNC1(C)C2CCC(C2)C1(C)C` (centres unmarked) [mecamylamine, N-2,3,3-tetramethylbicyclo(2.2.1)heptan-2-amine], for which, for the setting “Beagle dog, Day 13 versus Day 1, any group”, the accumulation ratios was at most 1.14. Moreover, the Cmax reads like this: (3 mg/eye/day, Group 2 (2 doses/eye/day, 3 mg/eye/day), read-out: Cmax, mean) 49 ng/mL; (3 mg/eye/day, Group 2, read-out: Cmax, highest overall value) 185 ng/mL; (6 mg/eye/day, Group 3 (4 doses/eye/day, 6 mg/eye/day), read-out: Cmax, mean) 44 ng/mL; (9 mg/eye/day, Group 4 (6 doses/eye/day, 9 mg/eye/day), read-out: Cmax, mean) 64 ng/mL.
